Results: the supplement of paper PMC10627819

Tests used:
Assay in all cases: fitness (endpoint OD595 vs no drug) (fraction); higher = more growth
B. subtilis 168 = system: B. subtilis 168
Summary of the method: (§1)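 Bacterial fitness was scored as optical density at the stationary-phase transition relative to the robust mean of no-drug control wells. Scores are capped at 1. The growth data were OD595 readings every 30 min for 14 h at 37 °C, background-subtracted against the first reading, from 384-well plates inoculated at OD595 0.01 in TSB, LB Lennox or CY.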

S. aureus DSM 20231 = system: S. aureus DSM 20231
Summary of the method: as §1

S. pneumoniae D39V = system: S. pneumoniae D39V
Summary of the method: as §1
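Note: OD595 on entry to stationary phase over no-drug wells; at most 1.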

CN(C)[C@@H]1C(O)=C(C(N)=O)C(=O)[C@@]2(O)C(O)=C3C(=O)c4c(O)ccc(Cl)c4[C@@](C)(O)[C@H]3C[C@@H]12 [Chlortetracycline] + Cc1ncc([N+](=O)[O-])n1CCO [Metronidazole]
Conditions | fitness
B. subtilis 168, first compound 0.0475 µg/mL, partner 0.625 µg/mL | 0.978
B. subtilis 168, first compound 0.0475 µg/mL, partner 1.25 µg/mL | 0.925
B. subtilis 168, first compound 0.0475 µg/mL, partner 2.5 µg/mL | 0.959
B. subtilis 168, first compound 0.095 µg/mL, partner 0.625 µg/mL | 0.888
B. subtilis 168, first compound 0.095 µg/mL, partner 1.25 µg/mL | 0.789
B. subtilis 168, first compound 0.095 µg/mL, partner 2.5 µg/mL | 0.822
B. subtilis 168, first compound 0.19 µg/mL, partner 0.625 µg/mL | 0.619
B. subtilis 168, first compound 0.19 µg/mL, partner 1.25 µg/mL | 0.586
B. subtilis 168, first compound 0.19 µg/mL, partner 2.5 µg/mL | 0.536
S. aureus DSM 20231, first compound 0.048 µg/mL, partner 0.625 µg/mL | 0.196
S. aureus DSM 20231, first compound 0.048 µg/mL, partner 1.25 µg/mL | 0.144
S. aureus DSM 20231, first compound 0.048 µg/mL, partner 2.5 µg/mL | 0.124
S. pneumoniae D39V, first compound 0.012 µg/mL, partner 1.073 µg/mL | 0.958
S. pneumoniae D39V, first compound 0.012 µg/mL, partner 4.29 µg/mL | 0.904
S. pneumoniae D39V, first compound 0.024 µg/mL, partner 1.073 µg/mL | 0.972
S. pneumoniae D39V, first compound 0.024 µg/mL, partner 4.29 µg/mL | 0.916
S. pneumoniae D39V, first compound 0.048 µg/mL, partner 1.073 µg/mL | 0.855
S. pneumoniae D39V, first compound 0.048 µg/mL, partner 2.145 µg/mL | 0.873
S. pneumoniae D39V, first compound 0.048 µg/mL, partner 4.29 µg/mL | 0.872
S. pneumoniae D39V, first compound 0.375 µg/mL, partner 1.25 µg/mL | 0.0344
S. pneumoniae D39V, first compound 0.375 µg/mL, partner 2.5 µg/mL | 0.0383
S. pneumoniae D39V, first compound 0.375 µg/mL, partner 5 µg/mL | 0.0668
S. pneumoniae D39V, first compound 0.75 µg/mL, partner 1.25 µg/mL | 0.0404
S. pneumoniae D39V, first compound 0.75 µg/mL, partner 2.5 µg/mL | 0.045
S. pneumoniae D39V, first compound 0.75 µg/mL, partner 5 µg/mL | 0.0953
S. pneumoniae D39V, first compound 1.5 µg/mL, partner 1.25 µg/mL | 0.0574
S. pneumoniae D39V, first compound 1.5 µg/mL, partner 2.5 µg/mL | 0.0668
S. pneumoniae D39V, first compound 1.5 µg/mL, partner 5 µg/mL | 0.0748

S. aureus DSM 20231, first compound 0.006 µg/mL, one replicate
Conditions | fitness
partner 0.625 µg/mL | 0.807
partner 1.25 µg/mL | 0.8
partner 2.5 µg/mL | 0.833

CC(=O)Oc1ccccc1C(=O)O [Acetylsalicylic acid] + C[n+]1ccc(-c2cc[n+](C)cc2)cc1 [Paraquat]
fitness
Conditions | partner 1.25 µg/mL | partner 1.5 µg/mL | partner 2.5 µg/mL | partner 3 µg/mL | partner 5 µg/mL | partner 6 µg/mL
S. aureus DSM 20231, first compound 250 µg/mL | 0.877 | – | 0.868 | – | 0.861 | –
S. aureus DSM 20231, first compound 500 µg/mL | 0.823 | – | 0.807 | – | 0.774 | –
S. pneumoniae D39V, first compound 250 µg/mL | – | 0.972 | – | 0.954 | – | 0.934
S. pneumoniae D39V, first compound 500 µg/mL | – | 0.969 | – | 0.938 | – | 0.872
S. pneumoniae D39V, first compound 1000 µg/mL | – | 0.916 | – | 0.873 | – | 0.772

CN(C)[C@@H]1C(O)=C(C(N)=O)C(=O)[C@@]2(O)C(O)=C3C(=O)c4c(O)ccc(Cl)c4[C@@](C)(O)[C@H]3C[C@@H]12 [Chlortetracycline] + C[C@@H]1O[C@@H]1P(=O)(O)O [Fosfomycin]
Conditions | fitness
B. subtilis 168, first compound 0.0475 µg/mL, partner 1.562 µg/mL | 0.713
B. subtilis 168, first compound 0.0475 µg/mL, partner 3.124 µg/mL | 0.636
B. subtilis 168, first compound 0.0475 µg/mL, partner 6.248 µg/mL | 0.498
B. subtilis 168, first compound 0.095 µg/mL, partner 1.562 µg/mL | 0.629
B. subtilis 168, first compound 0.095 µg/mL, partner 3.124 µg/mL | 0.557
B. subtilis 168, first compound 0.095 µg/mL, partner 6.248 µg/mL | 0.408
B. subtilis 168, first compound 0.19 µg/mL, partner 3.124 µg/mL | 0.336
B. subtilis 168, first compound 0.19 µg/mL, partner 6.248 µg/mL | 0.19
S. aureus DSM 20231, first compound 0.012 µg/mL, partner 0.781 µg/mL | 0.309
S. aureus DSM 20231, first compound 0.012 µg/mL, partner 1.562 µg/mL | 0.145
S. aureus DSM 20231, first compound 0.012 µg/mL, partner 3.124 µg/mL | 0.0645
S. aureus DSM 20231, first compound 0.024 µg/mL, partner 0.781 µg/mL | 0.154
S. aureus DSM 20231, first compound 0.024 µg/mL, partner 1.562 µg/mL | 0.0553
S. aureus DSM 20231, first compound 0.024 µg/mL, partner 3.124 µg/mL | 0.0457
S. aureus DSM 20231, first compound 0.048 µg/mL, partner 0.781 µg/mL | 0.0506
S. aureus DSM 20231, first compound 0.048 µg/mL, partner 1.562 µg/mL | 0.0192
S. aureus DSM 20231, first compound 0.048 µg/mL, partner 3.124 µg/mL | 0.0143
S. pneumoniae D39V, first compound 0.012 µg/mL, partner 1.25 µg/mL | 0.936
S. pneumoniae D39V, first compound 0.012 µg/mL, partner 2.5 µg/mL | 0.881
S. pneumoniae D39V, first compound 0.012 µg/mL, partner 5 µg/mL | 0.777
S. pneumoniae D39V, first compound 0.024 µg/mL, partner 1.25 µg/mL | 0.629
S. pneumoniae D39V, first compound 0.024 µg/mL, partner 2.5 µg/mL | 0.625
S. pneumoniae D39V, first compound 0.024 µg/mL, partner 5 µg/mL | 0.628
S. pneumoniae D39V, first compound 0.048 µg/mL, partner 1.25 µg/mL | 0.303
S. pneumoniae D39V, first compound 0.048 µg/mL, partner 2.5 µg/mL | 0.31
S. pneumoniae D39V, first compound 0.048 µg/mL, partner 5 µg/mL | 0.319
S. pneumoniae D39V, first compound 0.375 µg/mL, partner 1.25 µg/mL | 0.045
S. pneumoniae D39V, first compound 0.375 µg/mL, partner 2.5 µg/mL | 0.0463
S. pneumoniae D39V, first compound 0.375 µg/mL, partner 5 µg/mL | 0.0538
S. pneumoniae D39V, first compound 0.75 µg/mL, partner 1.25 µg/mL | 0.0544
S. pneumoniae D39V, first compound 0.75 µg/mL, partner 2.5 µg/mL | 0.0368
S. pneumoniae D39V, first compound 0.75 µg/mL, partner 5 µg/mL | 0.0501
S. pneumoniae D39V, first compound 1.5 µg/mL, partner 1.25 µg/mL | 0.0742
S. pneumoniae D39V, first compound 1.5 µg/mL, partner 2.5 µg/mL | 0.0712
S. pneumoniae D39V, first compound 1.5 µg/mL, partner 5 µg/mL | 0.0865

S. aureus DSM 20231, first compound 0.006 µg/mL, one replicate
Conditions | fitness
partner 0.781 µg/mL | 0.609
partner 1.562 µg/mL | 0.47
partner 3.124 µg/mL | 0.205

CN(C)[C@@H]1C(O)=C(C(N)=O)C(=O)[C@@]2(O)C(O)=C3C(=O)c4c(O)ccc(Cl)c4[C@@](C)(O)[C@H]3C[C@@H]12 [Chlortetracycline] + CO[C@@]12[C@H](COC(N)=O)C3=C(C(=O)C(C)=C(N)C3=O)N1C[C@@H]1N[C@@H]12 [Mitomycin C]
S. aureus DSM 20231, first compound 0.006 µg/mL, one replicate
Conditions | fitness
partner 0.0156 µg/mL | 0.65
partner 0.0312 µg/mL | 0.64
partner 0.0625 µg/mL | 0.542

fitness
Conditions | first compound 0.012 µg/mL | first compound 0.024 µg/mL | first compound 0.048 µg/mL | first compound 0.375 µg/mL | first compound 0.75 µg/mL | first compound 1.5 µg/mL
S. aureus DSM 20231, partner 0.0156 µg/mL | 0.55 | 0.288 | 0.0746 | – | – | –
S. aureus DSM 20231, partner 0.0312 µg/mL | 0.52 | 0.224 | 0.0614 | – | – | –
S. aureus DSM 20231, partner 0.0625 µg/mL | 0.384 | 0.174 | 0.17 | – | – | –
S. pneumoniae D39V, partner 0.001075 µg/mL | 0.924 | 0.895 | 0.824 | – | – | –
S. pneumoniae D39V, partner 0.002 µg/mL | – | – | – | 0.0654 | 0.0249 | 0.0576
S. pneumoniae D39V, partner 0.00215 µg/mL | 0.853 | 0.832 | 0.788 | – | – | –
S. pneumoniae D39V, partner 0.004 µg/mL | – | – | – | 0.0793 | 0.0699 | 0.0536
S. pneumoniae D39V, partner 0.0043 µg/mL | 0.687 | 0.713 | 0.645 | – | – | –
S. pneumoniae D39V, partner 0.008 µg/mL | – | – | – | 0.0339 | 0.0265 | 0.0168

CC(=O)Oc1ccccc1C(=O)O [Acetylsalicylic acid] + CO/N=C(\C(=O)N[C@@H]1C(=O)N2C(C(=O)O)=C(COC(C)=O)CS[C@H]12)c1csc(N)n1 [Cefotaxime]
fitness
Conditions | partner 0.0018 µg/mL | partner 0.0035 µg/mL | partner 0.007 µg/mL | partner 0.039 µg/mL | partner 0.078 µg/mL | partner 0.156 µg/mL | partner 0.312 µg/mL
S. aureus DSM 20231, first compound 250 µg/mL | – | – | – | 0.706 | 0.695 | 0.641 | 0.605
S. aureus DSM 20231, first compound 500 µg/mL | – | – | – | 0.614 | 0.608 | 0.561 | 0.507
S. aureus DSM 20231, first compound 1000 µg/mL | – | – | – | 0.509 | 0.443 | 0.343 | 0.148
S. pneumoniae D39V, first compound 250 µg/mL | 0.984 | 0.967 | 0.936 | – | – | – | –
S. pneumoniae D39V, first compound 500 µg/mL | ≥ 1 | 0.992 | 0.962 | – | – | – | –
S. pneumoniae D39V, first compound 1000 µg/mL | 0.97 | 0.89 | 0.823 | – | – | – | –

CC(=O)Oc1ccccc1C(=O)O [Acetylsalicylic acid] + CN(C)[C@@H]1C(O)=C(C(N)=O)C(=O)[C@@]2(O)C(O)=C3C(=O)c4c(O)ccc(Cl)c4[C@@](C)(O)[C@H]3C[C@@H]12 [Chlortetracycline]
S. aureus DSM 20231, partner 0.006 µg/mL, one replicate
Conditions | fitness
first compound 250 µg/mL | 0.686
first compound 500 µg/mL | 0.525
first compound 1000 µg/mL | 0.342

fitness
Conditions | partner 0.012 µg/mL | partner 0.024 µg/mL | partner 0.048 µg/mL | partner 0.375 µg/mL | partner 0.75 µg/mL | partner 1.5 µg/mL
S. aureus DSM 20231, first compound 250 µg/mL | 0.525 | – | – | – | – | –
S. aureus DSM 20231, first compound 500 µg/mL | 0.467 | 0.221 | 0.0964 | – | – | –
S. aureus DSM 20231, first compound 1000 µg/mL | 0.21 | 0.0899 | 0.0347 | – | – | –
S. pneumoniae D39V, first compound 250 µg/mL | 0.842 | 0.658 | 0.322 | 0.123 | 0.119 | 0.101
S. pneumoniae D39V, first compound 500 µg/mL | 0.831 | 0.606 | 0.281 | 0.129 | 0.0804 | 0.138
S. pneumoniae D39V, first compound 1000 µg/mL | 0.669 | 0.47 | 0.297 | 0.0772 | 0.0378 | 0.0721
